# Measured values as given in publication PMC3538728 (PLoS ONE, 2013).
# Several values for one entry are separate records, joined by “and”; a condition that tells them apart may be missing. Equal values may be shown once. Read-outs that look alike come from different tables or passages of the source. Marks after values point to notes of the source that are not given here.
# Molecular target: T1, γ-secretase (Homo sapiens, UniProt P49768)
# T1 construct: γ-Secretase is composed of four subunits: Aph1, Pen2, glycosylated nicastrin, and endo-proteolyzed presenilin as the catalytic core; endogenous in cells; host or cells: HeLa S3 (ATCC CCL-2.2)
# Assay: Aβ 1–40 secretion from HeLa cells in the presence of DAPT (sandwich ELISA), dose-response fits
# Assay type: cell-based
# Description: HeLa cells have been transfected using Lipofectamine LTX™ reagent following the manufacturer instructions. The transfection protocol and concentration of pSG5-cDNAwtC99 plasmid have been optimized to achieve desired assay sensitivity, a gradual increase in the substrate expression level, and a smooth transition from biphasic to the standard dose-response curves (Figs. 2–3). Initially concentration of pSG5-cDNAwtC99 plasmid have been optimized by western blots using anti-flag αM2 monoclonal antibody as described in our previous study. The cells were transfected in 24-well plates. The day before transfection the cells were trypsinized and counted. About 0.85×10^5 cells were seeded per well in 0.5 ml of complete growth medium to achieve about 75% confluent cultures on the day of transfection. Before the transfection old medium was removed and replaced with fresh 0.5 ml of complete growth medium. For transfection 5X DNA concentration was diluted in 500 µl of Opti-MEM®I Reduced Serum Media and mixed with 0.7 µl of Lipofectamine LTX™ Reagent. The solution was gently mixed and incubated for 30 minutes at room temperature to form DNA- Lipofectamine LTX™ Reagent complexes. Following the 30 min incubation, 100 µl of the DNA- Lipofectamine LTX™ Reagent complexes was added directly to each well containing cells and mixed gently by rocking the plate back and forth. The cells were incubated at 37°C in a CO2 incubator for 18 hours.
# Fresh medium was added 18 hours after the transfection (0.5 ml per well), to prepare the cells for incubation with DAPT [18], [51]. Different concentrations of DAPT were prepared in DMSO, and added to the cells so that the final DMSO concentration in the culture was 0.1% (v/v). DMSO vehicle represents 0 nM DAPT. The cells were incubated with DAPT at given concentrations for 15 hours.
# The assay linear response is in the range from 6–125 pM of Aβ 1–40. The assays were performed by closely following the manufacturer instructions. […] Each well was filled with 50 µl of the antibody conjugate solution and 50 µl of sample. The Aβ 1–40 standards were supplied by the manufacturer and prepared in parallel with other samples. All of the prepared wells were wrapped in aluminum foil and incubated overnight at 4°C with gentle mixing. The next day each well was washed five times with 300 µl of wash solution. After each […] wash, the wash solution was poured out and the wells were dried by tapping the plates on an absorbing paper. Washed wells were filled with 100 µl of the enzyme conjugate solution, covered, and incubated for 30 min at room temperature with shaking. The washing procedure was repeated once again to remove excess of the enzyme-conjugate. Next 100 µl of the substrate solution was added in each well in dark, and kept for 30 minutes covered at room temperature. The reaction was quenched by adding 50 µl of stop solution to each well, and within 15 min the signal intensity was read by measuring absorption at 450 nm.
# All experimental results were analyzed using MicroCal Origin 7.0 program, nonlinear regressions, and equations that represent specific mechanism. All results are reported as the best fit value ± standard error with two-sigma confidence intervals shown in square brackets (i.e. x±y [p, q]). Briefly, the standard error indicates random errors (i.e. precision) for each method, while the two sigma confidence intervals indicate the ability of given experimental setup to provide information about specific best-fit parameter. The random error for presented experiments is low, as indicated by a low scatter from the best fit values. The sharp confidence intervals can be obtained by taking a large number of independent data points that cover all segments that define the measured functions. […]
# [1] = HeLa, 250 ng/mL pSG5-cDNAwtC99, eqn. 2
# [2] = HeLa, 400 ng/mL pSG5-cDNAwtC99, eqn. 2
# [3] = HeLa, 600 ng/mL pSG5-cDNAwtC99, eqn. 2
# [4] = HeLa, 800 ng/mL pSG5-cDNAwtC99, eqn. 2
# [5] = average over 0-92 ng/mL pSG5-cDNAwtC99
# [6] = untransfected HeLa cells, eqn. 1, six free fit parameters
# [7] = untransfected HeLa cells, eqn. 1 with IA and MI as constants
# [8] = untransfected HeLa cells, measured separately, taken as constant in regression
# T1 sequence (Q9NZ42 whole entry, other chains not shown): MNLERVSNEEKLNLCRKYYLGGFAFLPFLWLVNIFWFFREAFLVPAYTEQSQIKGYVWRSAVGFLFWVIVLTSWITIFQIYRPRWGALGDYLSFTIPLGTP
# T1 sequence (Q92542 34-709, other chains not shown, further chain): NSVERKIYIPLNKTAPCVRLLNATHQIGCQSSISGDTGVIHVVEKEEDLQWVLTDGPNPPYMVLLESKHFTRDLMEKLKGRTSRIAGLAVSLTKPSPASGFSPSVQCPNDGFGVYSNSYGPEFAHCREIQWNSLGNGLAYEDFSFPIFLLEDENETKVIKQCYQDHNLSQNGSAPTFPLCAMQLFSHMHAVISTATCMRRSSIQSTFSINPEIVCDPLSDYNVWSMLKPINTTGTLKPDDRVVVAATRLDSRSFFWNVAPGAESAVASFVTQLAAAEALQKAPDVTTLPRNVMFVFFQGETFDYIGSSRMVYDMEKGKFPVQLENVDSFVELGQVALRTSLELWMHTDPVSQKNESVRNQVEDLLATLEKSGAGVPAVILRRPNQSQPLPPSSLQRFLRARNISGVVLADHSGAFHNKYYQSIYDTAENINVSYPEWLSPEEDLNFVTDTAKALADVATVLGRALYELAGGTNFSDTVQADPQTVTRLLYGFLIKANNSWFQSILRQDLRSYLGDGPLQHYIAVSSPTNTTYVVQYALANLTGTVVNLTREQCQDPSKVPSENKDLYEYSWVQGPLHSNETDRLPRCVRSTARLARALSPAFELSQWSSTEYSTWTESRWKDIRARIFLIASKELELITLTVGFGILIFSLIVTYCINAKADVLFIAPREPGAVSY
# T1 sequence (Q96BI3 whole entry, other chains not shown, further chain): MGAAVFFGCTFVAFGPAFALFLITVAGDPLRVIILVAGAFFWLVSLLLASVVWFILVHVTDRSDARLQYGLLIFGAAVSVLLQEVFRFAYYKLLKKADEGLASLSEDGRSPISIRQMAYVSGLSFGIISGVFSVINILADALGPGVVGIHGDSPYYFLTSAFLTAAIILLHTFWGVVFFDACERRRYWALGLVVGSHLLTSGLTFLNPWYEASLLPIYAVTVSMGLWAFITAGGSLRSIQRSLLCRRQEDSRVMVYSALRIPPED
compound,measurement,setting,value
"C[C@H](NC(=O)Cc1cc(F)cc(F)c1)C(=O)N[C@H](C(=O)OC(C)(C)C)c1ccccc1 [DAPT, N-[N-(3,5-difluorophenacetyl)-L-alanyl]-S-phenylglycine t-butyl ester]","Maximal Inhibition, MI","HeLa, 92 ng/mL pSG5-cDNAwtC99, eqn. 1",1.9 ± 0.6 pM per 10^6 cells
same,"Initial Activity, IA","HeLa, 92 ng/mL pSG5-cDNAwtC99, eqn. 1, activity at zero DAPT",119 ± 4 pM per 10^6 cells
same,EC50,"HeLa, 92 ng/mL pSG5-cDNAwtC99, eqn. 1, read-out: Activation EC50",178 ± 45 nM
same,IC50,"HeLa, 92 ng/mL pSG5-cDNAwtC99, eqn. 1, read-out: Inhibition IC50",661 ± 80 nM
same,Inhibition Hill's coef,[1],1.02 ± 0.07
same,"Maximal Inhibition, MI",[1],-0.9 ± 0.4 pM per 10^6 cells
same,"Initial Activity, IA","HeLa, 250 ng/mL pSG5-cDNAwtC99, eqn. 2, activity at zero DAPT",229 ± 4 pM per 10^6 cells
same,IC50,"HeLa, 250 ng/mL pSG5-cDNAwtC99, standard dose-response, eqn. 2, read-out: Inhibition IC50",126 ± 9 nM
same,Inhibition Hill's coef,[2],0.95 ± 0.04
same,"Maximal Inhibition, MI",[2],2.0 ± 0.9 pM per 10^6 cells
same,"Initial Activity, IA","HeLa, 400 ng/mL pSG5-cDNAwtC99, eqn. 2, activity at zero DAPT",190 ± 2 pM per 10^6 cells
same,IC50,"HeLa, 400 ng/mL pSG5-cDNAwtC99, standard dose-response, eqn. 2, read-out: Inhibition IC50",110 ± 8 nM
same,Inhibition Hill's coef,[3],0.84 ± 0.03
same,"Maximal Inhibition, MI",[3],-4 ± 2 pM per 10^6 cells
same,"Initial Activity, IA","HeLa, 600 ng/mL pSG5-cDNAwtC99, eqn. 2, activity at zero DAPT",140 ± 4 pM per 10^6 cells
same,IC50,"HeLa, 600 ng/mL pSG5-cDNAwtC99, standard dose-response, eqn. 2, read-out: Inhibition IC50",98 ± 6 nM
same,Inhibition Hill's coef,[4],0.61 ± 0.07
same,"Maximal Inhibition, MI",[4],2 ± 0.8 pM per 10^6 cells
same,"Initial Activity, IA","HeLa, 800 ng/mL pSG5-cDNAwtC99, eqn. 2, activity at zero DAPT",90 ± 1 pM per 10^6 cells
same,IC50,"HeLa, 800 ng/mL pSG5-cDNAwtC99, standard dose-response, eqn. 2, read-out: Inhibition IC50",89 ± 5 nM
same,mode of inhibition,at saturating C99 substrate,noncompetitive inhibitor
same,"Activation Hill coef., average",[5],1.0 ± 0.1
same,"Inhibition Hill's coef, average",[5],2.1±0.2
same,"Maximal Inhibition, MI, average",[5],0.5 ± 0.2 pM per 10^6 cells
same,IC50,"average over 0-92 ng/mL pSG5-cDNAwtC99 (all biphasic curves), read-out: Inhibition IC50, average",534 ± 53 nM
same,EC50,"average over 0-92 ng/mL pSG5-cDNAwtC99 (all biphasic profiles), read-out: Activation EC50, average",111 ± 41 nM
same,"Maximal Activity, MA, average",average over 0-92 ng/mL pSG5-cDNAwtC99 (biphasic curves),189 pM per 10^6 cells
same,"Maximal Inhibition, MI, average",average over 250-800 ng/mL pSG5-cDNAwtC99,-0.5 ± 0.6 pM per 10^6 cells
same,IC50,"average over 250-800 ng/mL pSG5-cDNAwtC99 (standard dose-response curves), read-out: Inhibition IC50, average",106 ± 16 nM
same,potential to activate γ-secretase activity (MA vs. IA),"if binding only at the activation site, 31 pM vs. 196 pM Aβ 1–40 per 10^6 cells",~7 fold
same,cDNAwtC99 required to reach activation by DAPT,transfection without DAPT giving same Aβ 1-40 secretion as endogenous substrate at 33 nM DAPT,70 ng/mL
same,cDNAwtC99 required to reach activation by DAPT,transfection without DAPT giving same Aβ 1-40 secretion as endogenous substrate at 100 nM DAPT,120 ng/mL
same,cDNAwtC99 required to reach activation by DAPT,transfection without DAPT giving same Aβ 1-40 secretion as endogenous substrate at 333 nM DAPT,118 ng/mL
same,cDNAwtC99 required to reach activation by DAPT,transfection without DAPT giving same Aβ 1-40 secretion as endogenous substrate at 500 nM DAPT,100 ng/mL
same,cDNAwtC99 required to reach activation by DAPT,transfection without DAPT giving same Aβ 1-40 secretion as endogenous substrate at 1000 nM DAPT,16 ng/mL
same,activity on Endogenous substrate (Aβ 1-40 secreted),"untransfected HeLa cells, 33 nM DAPT",81.1 pM per 10^6 cells
same,activity on Endogenous substrate (Aβ 1-40 secreted),"untransfected HeLa cells, 100 nM DAPT",132 pM per 10^6 cells and 132.0 pM per 10^6 cells
same,activity on Endogenous substrate (Aβ 1-40 secreted),"untransfected HeLa cells, 333 nM DAPT",129.0 pM per 10^6 cells
same,activity on Endogenous substrate (Aβ 1-40 secreted),"untransfected HeLa cells, 500 nM DAPT",111.6 pM per 10^6 cells
same,activity on Endogenous substrate (Aβ 1-40 secreted),"untransfected HeLa cells, 1000 nM DAPT",43.0 pM per 10^6 cells
same,"observed maximal activity, Aβ 1–40 secreted","untransfected HeLa cells, at 108 nM DAPT",145 pM per 10^6 cells
same,Activation Hill's coef,[6],1.09 ± 0.4
same,Inhibition Hill's coef,[6],1.9±0.5 and 1.92 ± 0.5
same,Activation Hill's coef,[7],1.09 ± 0.16
same,Inhibition Hill's coef,[7],1.92 ± 0.25
same,"Maximal Activity, MA",[7],196 ± 35 pM per 10^6 cells
same,EC50,"untransfected HeLa cells, eqn. 1 with IA and MI as constants, read-out: Activation EC50",72 ± 9 nM
same,IC50,"untransfected HeLa cells, eqn. 1 with IA and MI as constants, read-out: Inhibition IC50",472 ± 35 nM
same,"Initial Activity, IA",[8],31 ^c pM per 10^6 cells
same,"Maximal Inhibition, MI",[8],0 ^c pM per 10^6 cells
same,DAPT concentration at which maximal activity is observed,"untransfected HeLa cells, peak of biphasic curve",108 nM
